Results as given in ChEMBL document CHEMBL1201862, “PubChem BioAssay data set” (2004).
Values belong to the compound of their own block, whether it stands above or below them. Calls of active or inactive are those of the source.

Assays:
[1] = target: T1, Polyadenylate-binding protein 1 (Homo sapiens, UniProt P11940); test: MLLE domain peptide-binding blockers, IC50 – biochemical, fluorescence polarization, FITC-PAM2 peptide, dose response (AID 602259); format: functional; conditions: read-out: IC50_Mean
[2] = NIH-3T3 fibroblast cytotoxicity, dose response, cytotoxicity control, cell-based, fluorescence, Alamar Blue, secondary assay (AID 2327); format: functional;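 also: NIH-3T3 mouse fibroblasts cultured with fluconazole at 8 µg/mL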
[3] = target: T1, Polyadenylate-binding protein 1; test: MLLE binding blockers, Cy5 peptide tracer – biochemical, fluorescence polarization, Cy5-PAM2 peptide, secondary, miRNA deadenylation inhibitor project, dose response (AID 602260); format: functional; conditions: read-out: IC50_Mean
Beta-galactosidase = Beta-galactosidase (Escherichia coli, UniProt Q8VNN2); test: PubChem AID 485352; format: functional
[4] = target: Serine/threonine-protein phosphatase (Candida dubliniensis (strain CD36 / CBS 7987 / NCPF 3949 / NRRLY-17841) (Yeast), UniProt B9W6M3); test: blockers of CaCl2-induced CDRE-lacZ signaling – S. cerevisiae, luminescence, secondary, dose response (AID 2388); format: functional, cell-based;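 also: yeast reporter cells carrying a calcineurin-responsive lacZ construct stimulated with calcium chloride; luminescent beta-galactosidase reporter signal in whole cells rather than isolated phosphatase activity; potency for inhibition where a drop in reporter signal means calcineurin blockade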
[5] = target: T2, Type-1 angiotensin II receptor (Homo sapiens, UniProt P30556); test: antagonism of angiotensin II type 1 receptor – cell-based, uHTS hits, selectivity assay for APJ receptor antagonist project, dose response (AID 463214); format: functional;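 also: antagonist potency against angiotensin II stimulated AT1 response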
T2 sequence (P30556 whole entry): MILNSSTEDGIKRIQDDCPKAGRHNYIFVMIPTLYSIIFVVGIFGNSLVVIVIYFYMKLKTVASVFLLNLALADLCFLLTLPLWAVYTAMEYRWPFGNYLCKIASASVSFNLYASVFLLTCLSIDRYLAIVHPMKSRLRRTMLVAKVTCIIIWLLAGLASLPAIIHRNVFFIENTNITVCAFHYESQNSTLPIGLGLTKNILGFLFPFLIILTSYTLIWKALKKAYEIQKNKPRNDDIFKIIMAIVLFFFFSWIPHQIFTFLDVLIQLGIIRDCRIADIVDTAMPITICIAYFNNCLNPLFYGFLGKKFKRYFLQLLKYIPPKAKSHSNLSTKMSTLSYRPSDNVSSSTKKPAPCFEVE

[6] = target: ATP-dependent molecular chaperone HSP82 (Candida albicans (strain WO-1) (Yeast), UniProt C4YTQ8); test: steroid-induced GRE reporter decrease in yeast – S. cerevisiae, luminescence, Hsp90 inhibitor project, dose response (AID 2400); format: functional, cell-based;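 also: beta-galactosidase luminescence from glucocorticoid response element reporter as proxy for Hsp90 function; inhibitor potency where signal loss means Hsp90 inhibition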
[7] = fluconazole-exposed Candida albicans growth modulators – fluorescence, retest, confirmation (AID 2467); format: functional, cell-based
Hexokinase HKDC1 = target: T3, Hexokinase HKDC1 (Homo sapiens, UniProt Q2TB90); test: SAR analysis of small molecule inhibitors of hexokinase domain containing I (HKDC1). [Related pubchem assays (depositor defined):AID493160, AID493190]; format: functional
T3 sequence (Q2TB90 whole entry): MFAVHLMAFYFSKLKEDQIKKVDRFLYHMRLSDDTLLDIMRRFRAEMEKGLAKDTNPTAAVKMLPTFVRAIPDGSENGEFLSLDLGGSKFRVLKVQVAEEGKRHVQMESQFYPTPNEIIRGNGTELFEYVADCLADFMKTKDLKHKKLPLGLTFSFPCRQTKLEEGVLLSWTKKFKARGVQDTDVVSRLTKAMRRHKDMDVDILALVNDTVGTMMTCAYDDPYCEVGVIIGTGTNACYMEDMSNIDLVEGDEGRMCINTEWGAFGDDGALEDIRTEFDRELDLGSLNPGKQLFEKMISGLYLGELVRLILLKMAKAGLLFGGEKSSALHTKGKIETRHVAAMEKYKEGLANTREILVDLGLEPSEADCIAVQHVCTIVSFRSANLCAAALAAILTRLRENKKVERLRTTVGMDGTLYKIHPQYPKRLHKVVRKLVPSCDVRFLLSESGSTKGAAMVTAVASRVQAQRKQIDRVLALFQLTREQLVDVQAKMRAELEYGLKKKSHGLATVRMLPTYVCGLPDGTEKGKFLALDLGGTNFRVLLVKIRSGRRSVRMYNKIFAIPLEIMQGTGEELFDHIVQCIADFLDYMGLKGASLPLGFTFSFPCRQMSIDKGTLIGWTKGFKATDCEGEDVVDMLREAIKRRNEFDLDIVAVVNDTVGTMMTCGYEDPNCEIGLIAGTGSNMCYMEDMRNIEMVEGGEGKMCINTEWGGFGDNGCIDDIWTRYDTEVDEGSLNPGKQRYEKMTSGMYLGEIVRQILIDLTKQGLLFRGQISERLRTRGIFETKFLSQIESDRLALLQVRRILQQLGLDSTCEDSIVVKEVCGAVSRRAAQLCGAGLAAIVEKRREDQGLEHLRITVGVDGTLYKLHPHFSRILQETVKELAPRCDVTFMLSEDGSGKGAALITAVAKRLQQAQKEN

Hexokinase-1 = target: T4, Hexokinase-1 (Homo sapiens, UniProt P19367); test: SAR analysis of small molecule inhibitors of hexokinase domain containing I (HKDC1) in the hexokinase 1 selectivity assay. [Related pubchem assays (depositor defined):AID493160, AID493190]; format: functional
T4 sequence (P19367 whole entry): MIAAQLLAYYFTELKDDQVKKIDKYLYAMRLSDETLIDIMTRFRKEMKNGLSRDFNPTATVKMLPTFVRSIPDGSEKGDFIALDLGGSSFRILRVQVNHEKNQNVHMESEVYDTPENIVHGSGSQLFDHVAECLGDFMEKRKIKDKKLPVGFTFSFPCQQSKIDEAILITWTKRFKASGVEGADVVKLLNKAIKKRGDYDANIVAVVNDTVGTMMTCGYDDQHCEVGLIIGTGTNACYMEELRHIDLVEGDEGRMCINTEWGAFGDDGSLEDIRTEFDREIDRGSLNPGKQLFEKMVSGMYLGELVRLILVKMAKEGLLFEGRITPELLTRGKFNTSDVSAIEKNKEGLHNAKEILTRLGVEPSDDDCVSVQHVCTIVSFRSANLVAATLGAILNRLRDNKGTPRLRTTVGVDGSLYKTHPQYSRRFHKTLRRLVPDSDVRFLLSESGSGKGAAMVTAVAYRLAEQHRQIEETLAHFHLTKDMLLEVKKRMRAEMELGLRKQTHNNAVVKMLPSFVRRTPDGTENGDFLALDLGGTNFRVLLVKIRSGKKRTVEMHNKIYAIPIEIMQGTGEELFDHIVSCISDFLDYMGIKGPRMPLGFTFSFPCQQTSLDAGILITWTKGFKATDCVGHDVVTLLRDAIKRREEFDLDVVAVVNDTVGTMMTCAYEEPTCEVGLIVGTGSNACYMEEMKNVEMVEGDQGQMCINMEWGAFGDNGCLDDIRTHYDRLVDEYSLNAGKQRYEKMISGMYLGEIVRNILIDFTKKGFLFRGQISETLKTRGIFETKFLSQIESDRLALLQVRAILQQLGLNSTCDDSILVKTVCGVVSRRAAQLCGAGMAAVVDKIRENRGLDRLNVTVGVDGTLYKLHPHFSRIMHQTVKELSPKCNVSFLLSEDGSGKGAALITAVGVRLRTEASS

[8] = target: T5, Acyl-homoserine lactone acylase PvdQ (Pseudomonas aeruginosa (strain LESB58), UniProt Q9I194); test: PvdQ acylase enzyme activity blockers – biochemical, fluorescence, plate reader and imaging, cherry-picks, dose response (AID 493231)
T5 sequence (Q9I194 whole entry): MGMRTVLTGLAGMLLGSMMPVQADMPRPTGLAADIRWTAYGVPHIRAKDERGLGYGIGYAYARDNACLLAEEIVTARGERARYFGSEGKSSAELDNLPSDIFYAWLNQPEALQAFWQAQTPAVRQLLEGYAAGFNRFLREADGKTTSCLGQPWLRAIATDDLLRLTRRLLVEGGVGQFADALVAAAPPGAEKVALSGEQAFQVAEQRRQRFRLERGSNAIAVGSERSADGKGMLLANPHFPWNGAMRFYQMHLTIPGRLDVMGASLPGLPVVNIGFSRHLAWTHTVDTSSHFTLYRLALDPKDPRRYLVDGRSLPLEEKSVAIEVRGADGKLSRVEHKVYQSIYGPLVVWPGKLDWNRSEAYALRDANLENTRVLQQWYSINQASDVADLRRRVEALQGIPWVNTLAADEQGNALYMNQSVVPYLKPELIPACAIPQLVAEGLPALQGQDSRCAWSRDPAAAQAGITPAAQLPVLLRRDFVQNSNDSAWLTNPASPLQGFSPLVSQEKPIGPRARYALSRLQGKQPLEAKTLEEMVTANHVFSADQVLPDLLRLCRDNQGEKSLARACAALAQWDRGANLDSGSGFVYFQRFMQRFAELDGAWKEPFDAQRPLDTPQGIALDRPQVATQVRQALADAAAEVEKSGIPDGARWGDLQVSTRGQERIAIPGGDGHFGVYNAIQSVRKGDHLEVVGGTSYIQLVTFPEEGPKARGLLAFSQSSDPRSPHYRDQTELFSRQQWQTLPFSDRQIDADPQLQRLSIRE

HeLa = test: toxicity to human HeLa cells – cell-based, 48 h, plate reader, cherry-picks, cytotoxicity control, dose response (AID 504942); format: functional
[9] = target: Induced myeloid leukemia cell differentiation protein Mcl-1 (Homo sapiens, UniProt Q07820); format: functional
Vero = test: viability of Vero cells under compound – cytotoxicity control for flavivirus capping enzyme inhibitors (AID 588742); format: functional; conditions: Chlorocebus sabaeus

T1 sequence (P11940 whole entry, the tested form may be a part): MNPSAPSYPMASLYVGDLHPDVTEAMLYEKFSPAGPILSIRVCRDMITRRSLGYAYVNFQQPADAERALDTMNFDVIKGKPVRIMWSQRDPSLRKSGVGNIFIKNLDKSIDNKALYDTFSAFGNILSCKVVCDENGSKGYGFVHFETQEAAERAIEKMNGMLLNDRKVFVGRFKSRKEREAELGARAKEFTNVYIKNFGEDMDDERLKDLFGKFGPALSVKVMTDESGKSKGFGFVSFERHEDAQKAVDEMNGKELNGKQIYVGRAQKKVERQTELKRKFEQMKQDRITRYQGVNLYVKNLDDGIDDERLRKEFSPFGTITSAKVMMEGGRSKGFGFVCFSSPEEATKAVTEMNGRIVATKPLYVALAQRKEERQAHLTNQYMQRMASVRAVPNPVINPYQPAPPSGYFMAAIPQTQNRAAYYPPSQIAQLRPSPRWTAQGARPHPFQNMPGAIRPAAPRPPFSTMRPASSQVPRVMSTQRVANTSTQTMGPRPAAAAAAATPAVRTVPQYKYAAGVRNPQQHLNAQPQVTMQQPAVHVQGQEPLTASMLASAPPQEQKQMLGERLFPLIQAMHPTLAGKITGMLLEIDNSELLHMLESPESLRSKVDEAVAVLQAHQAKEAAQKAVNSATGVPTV
Sequence of Serine/threonine-protein phosphatase (B9W6M3 whole entry): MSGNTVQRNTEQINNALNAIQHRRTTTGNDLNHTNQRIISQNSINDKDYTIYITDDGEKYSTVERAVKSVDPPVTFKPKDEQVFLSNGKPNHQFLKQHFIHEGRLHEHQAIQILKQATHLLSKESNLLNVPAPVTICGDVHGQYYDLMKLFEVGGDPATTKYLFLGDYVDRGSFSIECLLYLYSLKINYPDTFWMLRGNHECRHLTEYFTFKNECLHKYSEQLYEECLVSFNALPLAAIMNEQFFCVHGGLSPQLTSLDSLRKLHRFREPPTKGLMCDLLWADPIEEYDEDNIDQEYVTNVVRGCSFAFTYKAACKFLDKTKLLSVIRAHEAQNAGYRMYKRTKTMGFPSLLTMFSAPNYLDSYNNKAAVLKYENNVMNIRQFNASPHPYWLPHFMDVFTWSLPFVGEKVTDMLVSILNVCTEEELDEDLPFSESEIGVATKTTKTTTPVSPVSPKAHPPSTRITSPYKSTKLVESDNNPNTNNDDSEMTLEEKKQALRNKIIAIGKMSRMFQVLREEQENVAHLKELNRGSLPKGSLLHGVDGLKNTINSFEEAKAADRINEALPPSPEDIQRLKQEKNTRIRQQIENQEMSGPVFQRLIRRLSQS
Sequence of Beta-galactosidase (Q8VNN2 whole entry): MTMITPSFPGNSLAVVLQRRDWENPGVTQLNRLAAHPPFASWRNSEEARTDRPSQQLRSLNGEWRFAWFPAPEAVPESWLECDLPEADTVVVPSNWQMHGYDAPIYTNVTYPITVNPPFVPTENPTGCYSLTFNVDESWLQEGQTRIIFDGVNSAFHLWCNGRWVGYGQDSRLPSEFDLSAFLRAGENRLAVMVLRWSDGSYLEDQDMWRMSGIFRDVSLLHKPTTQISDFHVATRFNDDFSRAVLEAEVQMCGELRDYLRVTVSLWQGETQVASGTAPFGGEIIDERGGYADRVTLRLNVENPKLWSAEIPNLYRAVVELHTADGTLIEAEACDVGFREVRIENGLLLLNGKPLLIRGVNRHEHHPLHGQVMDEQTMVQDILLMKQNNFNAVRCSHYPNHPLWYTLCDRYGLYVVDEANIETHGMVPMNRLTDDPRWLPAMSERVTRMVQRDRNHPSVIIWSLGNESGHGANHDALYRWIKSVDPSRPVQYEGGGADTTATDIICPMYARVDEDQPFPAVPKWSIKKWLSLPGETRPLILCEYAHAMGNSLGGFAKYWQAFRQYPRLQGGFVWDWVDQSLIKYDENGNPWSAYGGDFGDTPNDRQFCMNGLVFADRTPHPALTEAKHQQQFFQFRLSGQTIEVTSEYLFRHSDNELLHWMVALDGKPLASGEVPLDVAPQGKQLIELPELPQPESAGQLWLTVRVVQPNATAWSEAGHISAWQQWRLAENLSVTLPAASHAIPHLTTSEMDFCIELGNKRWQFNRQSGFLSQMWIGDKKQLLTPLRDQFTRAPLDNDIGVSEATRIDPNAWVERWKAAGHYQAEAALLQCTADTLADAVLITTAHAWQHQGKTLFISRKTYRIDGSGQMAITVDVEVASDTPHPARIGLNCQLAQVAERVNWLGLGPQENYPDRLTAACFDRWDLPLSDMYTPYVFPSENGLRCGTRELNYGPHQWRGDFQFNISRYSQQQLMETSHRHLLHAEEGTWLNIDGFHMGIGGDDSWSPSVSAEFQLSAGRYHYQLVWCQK
Sequence of Induced myeloid leukemia cell differentiation protein Mcl-1 (Q07820 whole entry): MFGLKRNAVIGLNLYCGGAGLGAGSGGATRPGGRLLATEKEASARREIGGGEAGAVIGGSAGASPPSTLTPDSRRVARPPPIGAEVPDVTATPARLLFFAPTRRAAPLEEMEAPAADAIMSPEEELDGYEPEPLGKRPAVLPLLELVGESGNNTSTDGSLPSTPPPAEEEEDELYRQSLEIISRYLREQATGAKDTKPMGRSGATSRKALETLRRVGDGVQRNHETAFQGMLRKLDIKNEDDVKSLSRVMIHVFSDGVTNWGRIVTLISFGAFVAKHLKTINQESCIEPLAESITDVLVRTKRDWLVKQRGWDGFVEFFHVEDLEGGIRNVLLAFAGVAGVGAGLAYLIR
Sequence of ATP-dependent molecular chaperone HSP82 (C4YTQ8 whole entry): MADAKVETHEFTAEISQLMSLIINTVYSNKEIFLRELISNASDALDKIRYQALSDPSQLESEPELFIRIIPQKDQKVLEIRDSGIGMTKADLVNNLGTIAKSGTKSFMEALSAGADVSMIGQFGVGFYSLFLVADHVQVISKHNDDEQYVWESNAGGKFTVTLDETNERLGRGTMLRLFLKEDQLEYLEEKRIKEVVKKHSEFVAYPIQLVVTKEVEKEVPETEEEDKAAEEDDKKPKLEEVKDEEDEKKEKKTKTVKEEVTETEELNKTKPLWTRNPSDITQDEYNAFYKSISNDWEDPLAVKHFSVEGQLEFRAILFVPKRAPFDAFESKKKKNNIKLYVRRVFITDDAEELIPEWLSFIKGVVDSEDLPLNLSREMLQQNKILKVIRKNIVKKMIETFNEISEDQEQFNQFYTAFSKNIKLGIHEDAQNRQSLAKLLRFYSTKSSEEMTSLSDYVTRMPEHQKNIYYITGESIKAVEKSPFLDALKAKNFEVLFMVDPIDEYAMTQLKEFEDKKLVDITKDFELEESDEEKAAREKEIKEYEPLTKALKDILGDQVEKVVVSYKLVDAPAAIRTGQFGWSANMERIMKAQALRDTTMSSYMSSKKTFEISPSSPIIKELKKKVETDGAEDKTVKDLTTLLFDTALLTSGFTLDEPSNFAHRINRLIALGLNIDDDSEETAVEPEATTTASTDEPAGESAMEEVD

SMILES: Cc1cc(O)ccc1NC(=S)NC(=O)c1cncc(Br)c1
IC50 [1]: > 66 µM (inactive)
EC50 [2]: > 160 µM (inconclusive)
IC50 [3]: > 66 µM (inactive)
EC50 (Beta-galactosidase): > 40 µM (inactive)
EC50 [4]: > 180 µM (inactive)
IC50 [5]: 10.5 µM (active)
EC50 [6]: > 160 µM (inactive)
EC50 [7]: 1.05 µM (active)

IC50 (Hexokinase HKDC1): > 80 µM (inactive)
IC50 (Hexokinase-1): > 80 µM (inactive)
SMILES: Cc1ccc(Cn2c(/C=C/c3cccnc3)nc3ccccc3c2=O)cc1

SMILES: COc1ccc(/C(C#N)=C/c2cccnc2)cc1
AC50 [8]: 9.73 µM (active)
AC50 (HeLa): 254 µM (active)

IC50 [9]: 2.17 µM (active)
SMILES: CNc1ccc(Br)cc(C(=O)/C=C/c2ccc(OC)cc2OC)c1=O
CC50 (Vero): > 40 µM (active)
